Assay results reported in patent US12239643B2, “Therapeutic agent for inflammatory diseases, autoimmune diseases, fibrotic diseases, and cancer diseases” (MEIJI SEIKA PHARMA CO., LTD., priority 2018, dated 2025).
Like-named read-outs stand apart in the source and are kept apart here.

Assays:
TNFα [1] = test: Cytokine suppression using human peripheral blood mononuclear cells: TNFα; assay type: cell-based; conditions: human PBMC, lipopolysaccharide 1 ng/mL; read-out: TNFα Inhibitory Activity, Human PBMC (Test Example 4)
Procedure: First, peripheral blood mononuclear cells (PBMC) were separated from whole blood by specific gravity centrifugation. Then, the isolated peripheral blood mononuclear cells were added to RPMI-1640 medium (containing 10% fetal bovine serum, penicillin, streptomycin, L-glutamine, and 2-mercaptoethanol), and cultured in a 96-well plate at 37° C. under 5% CO2 for 0 to 1 hour. The test compound dissolved in dimethyl sulfoxide was added to each well, followed by further culture at 37° C. under 5% CO2 for 1 hour. A medium containing only dimethyl sulfoxide instead of the test compound was added to the control well. To each well, lipopolysaccharide (final concentration 1 ng/mL) as a TNFα production stimulant and an IL-23 production stimulant, or concanavalin A (final concentration 20 μg/mL) as an IL-17A production stimulant was added, followed by culture at 37° C. under 5% CO2. In addition, as IL-4 production stimulus, IL-5 production stimulus, and IL-13 production stimulus, PBMC was seeded on a 96-well plate previously coated with a CD3 antibody (final concentration 3 μg/mL), and a CD28 antibody (final concentration 5 ng/mL) was added. The culture was carried out for about 18 hours for the evaluation of the amounts of TNFα and IL-23, and about 48 hours for the evaluation of the amounts of IL-17A, IL-4, IL-5, and IL-13. After collecting the culture supernatant after culturing, the amount of each cytokine was measured by the sandwich ELISA method in the same manner as in Test Example 3, and the cytokine production suppression rate (inhibition rate) and the cytokine inhibitory activity (concentration for the inhibition rate of 50%) of each test compound were calculated.
(§1) The measurement results obtained by measuring the TNFα inhibitory activity and IL-5 inhibitory activity (50% inhibitory concentration) of the test compounds by the above method were evaluated in accordance with the following evaluated basis; A: less than 10 nM, B: 10 nM or more and less than 100 nM, and C: 100 nM or more. In addition, the measurement results obtained by measuring the IL-17A inhibitory activity, IL-23 inhibitory activity, IL-4 inhibitory activity, and IL-13 inhibitory activity (50% inhibitory concentration) of the test compounds were evaluated in accordance with the following evaluated basis; A: less than 500 nM, B: 500 nM or more and less than 5000 nM, and C: 5000 nM or more.

PDE4 = test: Evaluation of PDE4 inhibitory activity, scintillation proximity assay; assay type: biochemical
Procedure, shortened: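 IC50 was derived from inhibition curves, referenced to an enzyme-free blank and a DMSO-only control. Compound, PDE4 preparation and tritiated cAMP reacted 120 min at RT in Tris-HCl buffer (pH 7.4) with MgCl2, EGTA and BSA; YSi-SPA beads with ZnSO4 bound product before scintillation counting.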

[2] = tested on: oxazolone-induced auricle edema, BALB/c mice; test: Hapten repeated application mouse chronic dermatitis model (oral, topical); assay type: in vivo; conditions: for Mouse Chronic Dermatitis Model (Test Example 8), Topical: edema suppression rate: 20 μL of 0.3 to 3% solution once or twice a day for 10 days
Procedure, shortened: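 Female BALB/c mice aged 7–8 weeks were sensitised abdominally with 3% oxazolone, then challenged on both ears with 1% oxazolone. From week 1, test compound was given for 10 days orally at 0.3–10 mg/kg twice daily in 0.5% MC, or topically at 0.3–3% once or twice daily. Ear-thickness change measured by dial gauge gave edema suppression versus vehicle control.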

[3] = tested on: oxazolone-induced auricle edema, BALB/c mice; test: Mouse delayed type hypersensitivity (DTH) model (topical); assay type: in vivo; conditions: 20 μL applied to auricle, 24 hours after application
Procedure: Evaluation was carried out using female BALB/c mice (7 to 8 weeks of age). First, the hair of the abdomen of the mice was treated with a hair clipper, and then 150 μL of a 3% oxazolone acetone/ethanol solution was applied to the abdomen as a hapten. Five days later, 20 μL/ear of a 1% oxazolone.acetone/ethanol solution was applied to the outer surface of the auricle of both ears of the mouse to induce inflammation. Thirty minutes after the start of inflammation induction, 20 μL of the test compound dissolved in an acetone/ethanol solution was applied to the auricle. A 1% oxazolone was not applied to the blank. The control was one in which 1% oxazolone was applied and only an acetone/ethanol solution was applied without using the test compound. The auricle thickness 24 hours after application of the test compound was measured with a dial thickness gauge, and the value obtained by subtracting the blank value was used to calculate the edema suppression rate by the following formula. Edema Suppression Rate (%)={1−(Value at Addition of Each Test Compound−Blank Value)/(Control Value−Blank Value)}×100 The measurement results obtained by measuring the edema suppression rate at the time of topical administration of each test compound by the above method were evaluated in accordance with the following evaluated basis; A: 60% or more, B: 40% or more and less than 60%, and C: less than 40%.

[4] = Hepatic metabolic stability (rat liver microsome method); assay type: in vitro ADME; conditions: rat liver microsomes 0.5 mg/mL, test substance 1 μM, NADPH 1 mM, 37° C., 30 minutes
Procedure, shortened: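 Scored by % parent left after 30 min (30 min/0 min ×100, LC-MS), banded A ≥75%, B 60–<75%, C 45–<60%, D <45%. Incubation: 1 μM compound, 0.5 mg/mL rat microsomes, pH 7.4 phosphate buffer, 37° C, 5 min preincubation, NADPH 1 mM started, acetonitrile quench.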

TNFα [5] = test: Cytokine suppression using whole human blood: TNFα (lipopolysaccharide stimulus); assay type: cell-based; conditions: Homo sapiens, human whole blood; read-out: TNFα Inhibitory Activity, Human Whole Blood (Test Example 3)
Procedure: The test compound dissolved in dimethyl sulfoxide was added to a 96-well plate, and RPMI-1640 medium and human peripheral blood containing sodium heparin were added, followed by culture at 37° C. under 5% CO2 for 1 hour. A medium containing only dimethyl sulfoxide instead of the test compound was added to the control well. To each well, lipopolysaccharide (final concentration 10 ng/mL) as a TNFα production stimulant, or phytohaemagglutinin (final concentration 20 μg/mL) as an IL-17A production stimulant, or CytoStim reagent ( 1/100 concentration) and CD28 antibody (final concentration 2.5 ng/mL) as an IL-4 production stimulant and an IL-5 production stimulant were added, followed by culture at 37° C. under 5% CO2. The culture was carried out for about 18 hours for the evaluation of the amount of TNFα, and for about 48 hours for the evaluation of the amounts of IL-17A, IL-4, and IL-5.
After collecting the culture supernatant after culturing, the amount of each cytokine was measured by the sandwich ELISA method. The cytokine production suppression rate (inhibition rate) by the test compound was calculated by the following formula from the cytokine production amount when the test compound was added, with the cytokine production amount for the control well as 100%. Inhibition Rate={1−(Cytokine Amount at Addition of Each Test Compound)/(Cytokine Amount for Control Well)}×100
In addition, the cytokine inhibitory activity (concentration for the inhibition rate of 50%) of the test compound was calculated from the inhibition curves based on the inhibition rates for various concentrations of the test compound.
as §1, with “100” for “10”, “500” for “100”, “activity and” for “activity, IL-23 inhibitory activity,”, “IL-4” for “IL-4 inhibitory activity, and IL-13”

[6] = tested on: substance P-induced pruritus behavior, ICR mice; test: Mouse pruritus model; assay type: in vivo; conditions: oral, substance P intradermally 2 hours after administration
Procedure: Evaluation was carried out using male ICR mice (5 to 7 weeks of age). A micro magnet was embedded under the skin of both hind limbs of the mice in advance, and the hair on the back of the mouse neck was shaved. On the day of the test, the test compound was dissolved or suspended in 0.5% w/v methylcellulose (0.5% MC) and orally administered. Two hours after administration of the test compound, 50 μL of 300 nM substance P dissolved in saline was intradermally administered to the back of the mouse neck. The blank was a non-pruritus-induced group orally administered with 0.5% MC instead of the test compound and intradermally administered with saline instead of substance P, and the pruritus induction control was a group orally administered with 0.5% MC instead of the test compound. The pruritus measurement system for small animals, MicroAct II, automatically measured pruritus behavior for 30 minutes immediately after intradermal administration.

[7] = finer grading of compounds rated A in Evaluation 1, read-out: PDE4 Inhibitory Activity (Evaluation 2)

| IC50 (TNFα [1]) | Structure (SMILES) | IC50 (PDE4; [7]) | Mouse Chronic Dermatitis Model (Test Example 8), Topical: edema suppression rate [2] | Mouse DTH Model (Test Example 11), Topical: edema suppression rate [3] | IC50 (PDE4; scintillation proximity assay, read-out: PDE4 Inhibitory Activity (Evaluation 1; concentration for the inhibition rate of 50%)) | PDE4 inhibitory activity (PDE4; summary in words of Tables 57 to 69) | Mouse Chronic Dermatitis Model (Test Example 8), Oral: edema suppression rate ([2]; oral, 0.3 to 10 mg/kg twice a day for 10 days) | Residual ratio (% remaining for 30-minute reaction) [4] | IC50 (TNFα [5]) | scratching behavior (pruritus behavior for 30 minutes) [6] |
| --- | --- | --- | --- | --- | --- | --- | --- | --- | --- | --- |
| > 100 nM | N#Cc1ccc(Oc2ccc3c(c2)COB3O)cc1 [crisaborole, reference compound] | > 100 nM | C (C: less than 70%) | C (C: less than 40%) | – | – | – | – | – | – |
| – | CC(O)C(F)(F)Oc1ccc(-c2nccs2)c2oc(N3CC4CC(C3)N4)nc12 (single isomer, unassigned) [Example 251, 1-((2-(3,6-Diazabicyclo[3.1.1]heptan-3-yl)-7-(thiazol-2-yl)benzo[d]oxazol-4-yl)oxy)-1,1-difluoropropan-2-ol] | ≤ 1 nM | A (A: 100% or more) | B (B: 40% or more and less than 60%) | < 100 nM | particularly excellent | B (B: 40% or more and less than 70%) | A (A: a % remaining rate of 75% or more) | < 100 nM | – |
| – | CC(C)(C(=O)O)c1ccc(C(O)CCCN2CCC(C(O)(c3ccccc3)c3ccccc3)CC2)cc1 (stereo not shown) [fexofenadine, reference compound] | – | – | – | – | – | – | – | – | did not suppress scratching behavior |
